Measurements reported in patent US20220125765A1, “PHARMACEUTICAL COMBINATIONS COMPRISING MEBENDAZOLE AND A STRONG OR MODERATE CYP1A2 INHIBITOR” (ZEPHAPHARM LTD, priority 2019, published 2022).

Assays:
[1] = Stability in human cryopreserved hepatocytes without and with cimetidine or thiabendazole (Example 6); settings: human, substrate 1 μM; for half-life at 1 μM: t½
Protocol: Mebendazole (1 μM) was incubated with cryopreserved human hepatocytes for 60 min in the absence and presence of cimetidine at 30, 100 and 300 μM) and thiabendazole at 10, 30 and 100 μM and samples taken at the required time points. The amount of test compound remaining at each time point was analysed by LC-MS/MS. Appropriate control compounds were also incubated along with ethoxycoumarin, which was incubated in the absence and presence of cimetidine and thiabendazole.
The final incubation volume was 500 μL. Two control compounds were included, alongside appropriate vehicle control. A positive control compound, ethoxycoumarin, for CYP1A2 was included. The positive control compound was incubated without inhibitor and in the presence of each inhibitor. The reactions were stopped by transferring 50 μL of incubate to 100 μL acetonitrile containing internal standard at the appropriate time points (0, 5, 10, 20, 40 and 60 min). The termination plates were centrifuged at 2500 rpm at 4° C. for 30 min to precipitate the protein.

[2] = Stability in human liver microsomes without and with cimetidine or furafylline (Example 4); assay type: in vitro ADME; settings: human liver microsomes, largest effect over concentrations tested
Protocol: A minus cofactor control incubation was included for each compound tested where 0.1 M phosphate buffer pH 7.4 was added instead of NADPH (minus NADPH). […] The samples were analysed for mebendazole or phenacetin using LC-MS/MS.
A minus cofactor control incubation was included for each compound tested where 0.1 M phosphate buffer pH 7.4 was added instead of cofactor (minus NADPH). […] The samples were analysed for mebendazole or phenacetin using LC-MS/MS.

[3] = test system: human cryopreserved hepatocytes; assay: Stability in human cryopreserved hepatocytes without and with cimetidine or furafylline (Example 5); assay type: in vitro ADME; settings: human hepatocytes, largest effect over concentrations tested
Protocol: The final incubation volume was 500 μL. Two control compounds were included with each species, alongside appropriate vehicle control.
The samples were analysed for mebendazole or ethoxycoumarin using LC-MS/MS.
The final incubation volume was 500 μL.
A positive control compound, ethoxycoumarin, for CYP1A2 was included. […] The samples were analysed for mebendazole or ethoxycoumarin using LC-MS/MS.

[4] = cryopreserved hepatocytes (suspension), no inhibitor

hepatocyte CLint at 1 µM [1, 4]	half-life at 1 μM [1, 4]	hepatocyte CLint at 1 µM ([1]; cryopreserved hepatocytes (suspension), with cimetidine 30 µM, cimetidine 30 μM)	hepatocyte CLint at 1 µM ([1]; cryopreserved hepatocytes (suspension), with cimetidine 100 µM, cimetidine 100 μM)	hepatocyte CLint at 1 µM ([1]; cryopreserved hepatocytes (suspension), with cimetidine 300 µM, cimetidine 300 μM)	hepatocyte CLint at 1 µM ([1]; cryopreserved hepatocytes (suspension), with thiabendazole 10 µM, thiabendazole 10 μM)	hepatocyte CLint at 1 µM ([1]; cryopreserved hepatocytes (suspension), with thiabendazole 30 µM, thiabendazole 30 μM)	hepatocyte CLint at 1 µM ([1]; cryopreserved hepatocytes (suspension), with thiabendazole 100 µM, thiabendazole 100 μM)	half-life at 1 μM ([1]; cryopreserved hepatocytes, with cimetidine 30 μM, cimetidine 30 μM)	half-life at 1 μM ([1]; cryopreserved hepatocytes, with cimetidine 100 μM, cimetidine 100 μM)	half-life at 1 μM ([1]; cryopreserved hepatocytes, with cimetidine 300 μM, cimetidine 300 μM)	half-life at 1 μM ([1]; cryopreserved hepatocytes, with thiabendazole 10 μM, thiabendazole 10 μM)	half-life at 1 μM ([1]; cryopreserved hepatocytes, with thiabendazole 30 μM, thiabendazole 30 μM)	half-life at 1 μM ([1]; cryopreserved hepatocytes, with thiabendazole 100 μM, thiabendazole 100 μM)	inhibition of intrinsic clearance of mebendazole [2]	decrease of mebendazole metabolism in presence of the inhibitor [3]	inhibition of intrinsic clearance of mebendazole [3]	Structure (SMILES)
105 µL/min/1e6 cells	13.2 min	99.9 µL/min/1e6 cells	88.8 µL/min/1e6 cells	59.8 µL/min/1e6 cells	8.65 µL/min/1e6 cells	5.35 µL/min/1e6 cells	4.05 µL/min/1e6 cells	13.9 min	15.6 min	23.2 min	160 min	259 min	343 min	–	–	–	CCOc1ccc2ccc(=O)oc2c1
–	–	–	–	–	–	–	–	–	–	–	–	–	–	99%	9.1 fold	89%	Cc1nc2c([nH]1)c(=O)n(C)c(=O)n2Cc1ccco1 [Furafylline]
